Source: ChEMBL document CHEMBL1201861, “Genomics of Drug Sensitity in Cancer screening data, Wellcome Trust Sanger Institute”

What was measured:
Test in all cases: cells
Assay type in all cases: functional, cell-based, Homo sapiens
[1] = system: MS-1; conditions: Homo sapiens, MS-1;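 further: growth inhibition of MS-1 cells, read out by cell viability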
Description: SANGER: Inhibition of human MS-1 cell growth in a cell viability assay.

[2] = system: DOHH-2; conditions: Homo sapiens, DOHH-2;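 further: growth inhibition of human DOHH-2 cells, read out with a cell viability assay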
Description: SANGER: Inhibition of human DOHH-2 cell growth in a cell viability assay.

[3] = system: NB69; conditions: Homo sapiens, NB69;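 further: growth inhibition of NB69 cells, determined by a cell viability assay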
Description: SANGER: Inhibition of human NB69 cell growth in a cell viability assay.

[4] = system: IST-MEL1; conditions: Homo sapiens, IST-MEL1;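 further: growth inhibition of the cell line, read out with a cell viability assay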
Description: SANGER: Inhibition of human IST-MEL1 cell growth in a cell viability assay.

[5] = system: NB12; conditions: Homo sapiens, NB12;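 further: growth inhibition of human NB12 cells, read out by a cell viability assay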
Description: SANGER: Inhibition of human NB12 cell growth in a cell viability assay.

[6] = system: OCUB-M; conditions: Homo sapiens, OCUB-M;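 further: growth inhibition of the cancer cell line, read out through a cell viability assay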
Description: SANGER: Inhibition of human OCUB-M cell growth in a cell viability assay.

[7] = system: NB5; conditions: Homo sapiens, NB5;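 further: growth inhibition of NB5 cells, read out as cell viability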
Description: SANGER: Inhibition of human NB5 cell growth in a cell viability assay.

[8] = system: SCC-15; conditions: Homo sapiens, SCC-15;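 further: growth inhibition of SCC-15 cells, read out with a cell viability assay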
Description: SANGER: Inhibition of human SCC-15 cell growth in a cell viability assay.

[9] = system: GB-1; conditions: Homo sapiens, GB-1;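 further: growth of GB-1 cells judged by a viability assay, IC50 marks the concentration inhibiting growth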
Description: SANGER: Inhibition of human GB-1 cell growth in a cell viability assay.

[10] = system: C8166; conditions: Homo sapiens, C8166;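 further: growth inhibition of human C8166 cells measured by a cell viability assay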
Description: SANGER: Inhibition of human C8166 cell growth in a cell viability assay.

[11] = system: NCI-H1304; conditions: Homo sapiens, NCI-H1304;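 further: growth inhibition of the cancer cell line, measured in a cell viability assay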
Description: SANGER: Inhibition of human NCI-H1304 cell growth in a cell viability assay.

[12] = system: HCC1187; conditions: Homo sapiens, HCC1187;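 further: growth inhibition of HCC1187 cells, read out with a cell viability assay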
Description: SANGER: Inhibition of human HCC1187 cell growth in a cell viability assay.

[13] = system: HD-MY-Z; conditions: Homo sapiens, HD-MY-Z;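 further: growth inhibition of HD-MY-Z cells, read out with a cell viability assay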
Description: SANGER: Inhibition of human HD-MY-Z cell growth in a cell viability assay.

[14] = system: A3-KAW; conditions: Homo sapiens, A3-KAW;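 further: growth inhibition of human A3-KAW cells, read out with a cell viability assay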
Description: SANGER: Inhibition of human A3-KAW cell growth in a cell viability assay.

[15] = system: NCI-H1092; conditions: Homo sapiens, NCI-H1092;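 further: cell growth inhibition measured with a cell viability assay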
Description: SANGER: Inhibition of human NCI-H1092 cell growth in a cell viability assay.

[16] = system: SK-UT-1; conditions: Homo sapiens, SK-UT-1;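 further: growth inhibition of SK-UT-1 cells, measured by a cell viability assay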
Description: SANGER: Inhibition of human SK-UT-1 cell growth in a cell viability assay.

[17] = system: HT-144; conditions: Homo sapiens, HT-144
Description: SANGER: Inhibition of human HT-144 cell growth in a cell viability assay.

[18] = system: NB6; conditions: Homo sapiens, NB6;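 further: growth inhibition of NB6 cells, read out by a cell viability assay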
Description: SANGER: Inhibition of human NB6 cell growth in a cell viability assay.

[19] = system: MSTO-211H; conditions: Homo sapiens, MSTO-211H
Description: SANGER: Inhibition of human MSTO-211H cell growth in a cell viability assay.

[20] = system: NCI-H526; conditions: Homo sapiens, NCI-H526;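 further: growth inhibition of the human NCI-H526 cell line, measured by a cell viability assay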
Description: SANGER: Inhibition of human NCI-H526 cell growth in a cell viability assay.

[21] = system: AM-38; conditions: Homo sapiens, AM-38;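 further: growth inhibition of AM-38 cells of human origin, read out by a cell viability assay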
Description: SANGER: Inhibition of human AM-38 cell growth in a cell viability assay.

[22] = system: NTERA-2-cl-D1; conditions: Homo sapiens, NTERA-2-cl-D1;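 further: inhibition of cell growth, measured with a cell viability assay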
Description: SANGER: Inhibition of human NTERA-S-cl-D1 cell growth in a cell viability assay.

[23] = system: LU-139; conditions: Homo sapiens, LU-139
Description: SANGER: Inhibition of human LU-139 cell growth in a cell viability assay.

[24] = system: NCI-H209; conditions: Homo sapiens, NCI-H209;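 further: growth inhibition of human NCI-H209 cells, measured by a cell viability assay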
Description: SANGER: Inhibition of human NCI-H209 cell growth in a cell viability assay.

[25] = system: IA-LM; conditions: Homo sapiens, IA-LM;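 further: cell viability assay measuring growth inhibition of human IA-LM cells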
Description: SANGER: Inhibition of human IA-LM cell growth in a cell viability assay.

[26] = system: NCI-H69; conditions: Homo sapiens, NCI-H69;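 further: growth inhibition of the cell line, read out with a cell viability assay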
Description: SANGER: Inhibition of human NCI-H69 cell growth in a cell viability assay.

[27] = system: L-363; conditions: Homo sapiens, L-363
Description: SANGER: Inhibition of human L-363 cell growth in a cell viability assay.

[28] = system: TGBC1TKB; conditions: Homo sapiens, TGBC1TKB;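 further: growth inhibition of TGBC1TKB cells, read out by a cell viability assay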
Description: SANGER: Inhibition of human TGBC1TKB cell growth in a cell viability assay.

[29] = system: ES1; conditions: Homo sapiens, ES1;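 further: growth inhibition of ES1 cells, read out with a cell viability assay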
Description: SANGER: Inhibition of human ES1 cell growth in a cell viability assay.

[30] = system: SK-N-DZ; conditions: Homo sapiens, SK-N-DZ;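 further: growth inhibition of the cancer cell line, read out through a viability assay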
Description: SANGER: Inhibition of human SK-N-DZ cell growth in a cell viability assay.

[31] = system: HEL; conditions: Homo sapiens, HEL;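 further: growth inhibition of HEL cells, read out with a cell viability assay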
Description: SANGER: Inhibition of human HEL cell growth in a cell viability assay.

[32] = system: D-247MG; conditions: Homo sapiens, D-247MG
Description: SANGER: Inhibition of human D-247MG cell growth in a cell viability assay.

[33] = system: EKVX; conditions: Homo sapiens, EKVX;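 further: growth inhibition of human EKVX cells, read out with a cell viability assay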
Description: SANGER: Inhibition of human EKVX cell growth in a cell viability assay.

[34] = system: HCC2157; conditions: Homo sapiens, HCC2157;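 further: growth inhibition of the cancer cell line, read out as cell viability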
Description: SANGER: Inhibition of human HCC2157 cell growth in a cell viability assay.

[35] = system: UACC-257; conditions: Homo sapiens, UACC-257
Description: SANGER: Inhibition of human UACC-257 cell growth in a cell viability assay.

[36] = system: CTV-1; conditions: Homo sapiens, CTV-1;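 further: growth inhibition of the cell line, read out with a cell viability assay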
Description: SANGER: Inhibition of human CTV-1 cell growth in a cell viability assay.

[37] = system: KNS-81-FD; conditions: Homo sapiens, KNS-81-FD;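 further: growth inhibition of KNS-81-FD cells, read out with a cell viability assay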
Description: SANGER: Inhibition of human KNS-81-FD cell growth in a cell viability assay.

[38] = system: ATN-1; conditions: Homo sapiens, ATN-1;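 further: growth inhibition of human ATN-1 cells, read out with a cell viability assay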
Description: SANGER: Inhibition of human ATN-1 cell growth in a cell viability assay.

[39] = system: TGW; conditions: Homo sapiens, TGW;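 further: growth inhibition of human TGW cells, read out with a cell viability assay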
Description: SANGER: Inhibition of human TGW cell growth in a cell viability assay.

[40] = system: VA-ES-BJ; conditions: Homo sapiens, VA-ES-BJ;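 further: growth inhibition of the VA-ES-BJ cell line, read out by a cell viability assay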
Description: SANGER: Inhibition of human VA-ES-BJ cell growth in a cell viability assay.

[41] = system: COR-L88; conditions: Homo sapiens, COR-L88;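 further: growth inhibition of COR-L88 cells, read out with a cell viability assay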
Description: SANGER: Inhibition of human COR-L88 cell growth in a cell viability assay.

[42] = system: SK-N-FI; conditions: Homo sapiens, SK-N-FI;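 further: cell viability assay measuring growth inhibition of human SK-N-FI cells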
Description: SANGER: Inhibition of human SK-N-FI cell growth in a cell viability assay.

[43] = system: SW 962; conditions: Homo sapiens, SW 962;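 further: growth inhibition of human SW962 cells, read out by a cell viability assay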
Description: SANGER: Inhibition of human SW962 cell growth in a cell viability assay.

[44] = system: NCI-H747; conditions: Homo sapiens, NCI-H747;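 further: growth inhibition of human NCI-H747 cells, read out by a cell viability assay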
Description: SANGER: Inhibition of human NCI-H747 cell growth in a cell viability assay.

[45] = system: SNU-5; conditions: Homo sapiens, SNU-5;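 further: cell viability readout used to measure growth inhibition in human NCI-SNU-5 cells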
Description: SANGER: Inhibition of human NCI-SNU-5 cell growth in a cell viability assay.

[46] = system: CP66-MEL; conditions: Homo sapiens, CP66-MEL;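 further: growth inhibition of CP66-MEL cells determined in a cell viability assay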
Description: SANGER: Inhibition of human CP66-MEL cell growth in a cell viability assay.

[47] = system: EW-24; conditions: Homo sapiens, EW-24;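 further: human EW-24 cancer cell line, growth inhibition read out via a cell viability assay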
Description: SANGER: Inhibition of human EW-24 cell growth in a cell viability assay.

[48] = system: DMS-79; conditions: Homo sapiens, DMS-79;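 further: growth inhibition measured with a cell viability assay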
Description: SANGER: Inhibition of human DMS-79 cell growth in a cell viability assay.

[49] = system: HOP-62; conditions: Homo sapiens, HOP-62;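 further: cell growth inhibition determined with a viability assay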
Description: SANGER: Inhibition of human HOP-62 cell growth in a cell viability assay.

COc1cc2c(Nc3ccc(NC(=O)c4ccccc4)cc3)ncnc2cc1OCCCN1CCOCC1
IC50 [1]: > 4000 nM | IC50 [2]: 1400 nM | IC50 [3]: 3230 nM | IC50 [4]: > 4000 nM | IC50 [5]: > 4000 nM | IC50 [6]: 2250 nM | IC50 [7]: 1840 nM | IC50 [8]: 3730 nM | IC50 [9]: > 4000 nM | IC50 [10]: > 4000 nM | IC50 [11]: > 4000 nM | IC50 [12]: > 4000 nM | IC50 [13]: > 4000 nM | IC50 [14]: > 4000 nM | IC50 [15]: > 4000 nM | IC50 [16]: 1820 nM | IC50 [17]: > 4000 nM | IC50 [18]: > 4000 nM | IC50 [19]: > 4000 nM | IC50 [20]: > 4000 nM | IC50 [21]: > 4000 nM | IC50 [22]: > 4000 nM | IC50 [23]: 3830 nM | IC50 [24]: 1170 nM | IC50 [25]: > 4000 nM | IC50 [26]: > 4000 nM | IC50 [27]: 1950 nM | IC50 [28]: > 4000 nM | IC50 [29]: 1770 nM | IC50 [30]: > 4000 nM | IC50 [31]: > 4000 nM | IC50 [32]: > 4000 nM | IC50 [33]: > 4000 nM | IC50 [34]: > 4000 nM | IC50 [35]: > 4000 nM | IC50 [36]: 2070 nM | IC50 [37]: > 4000 nM | IC50 [38]: > 4000 nM | IC50 [39]: > 4000 nM | IC50 [40]: 2790 nM | IC50 [41]: > 4000 nM | IC50 [42]: > 4000 nM | IC50 [43]: > 4000 nM | IC50 [44]: 2030 nM | IC50 [45]: > 4000 nM

C#Cc1cccc(Nc2ncnc3cc(OCCOC)c(OCCOC)cc23)c1 [ERLOTINIB]
IC50 [1]: > 2000 nM | IC50 [2]: > 2000 nM | IC50 [3]: > 2000 nM | IC50 [4]: > 2000 nM | IC50 [5]: > 2000 nM | IC50 [6]: > 2000 nM | IC50 [7]: > 2000 nM | IC50 [8]: > 2000 nM | IC50 [9]: > 2000 nM | IC50 [10]: > 2000 nM | IC50 [12]: > 2000 nM | IC50 [13]: > 2000 nM | IC50 [14]: > 2000 nM | IC50 [15]: > 2000 nM | IC50 [16]: > 2000 nM | IC50 [17]: > 2000 nM | IC50 [18]: > 2000 nM | IC50 [20]: > 2000 nM | IC50 [21]: > 2000 nM | IC50 [22]: > 2000 nM | IC50 [46]: > 2000 nM | IC50 [47]: 594 nM | IC50 [23]: > 2000 nM | IC50 [48]: > 2000 nM | IC50 [24]: > 2000 nM | IC50 [26]: > 2000 nM | IC50 [27]: > 2000 nM | IC50 [28]: > 2000 nM | IC50 [29]: > 2000 nM | IC50 [30]: > 2000 nM | IC50 [31]: > 2000 nM | IC50 [32]: > 2000 nM | IC50 [33]: 1120 nM | IC50 [34]: > 2000 nM | IC50 [35]: > 2000 nM | IC50 [36]: > 2000 nM | IC50 [37]: > 2000 nM | IC50 [49]: > 2000 nM | IC50 [38]: > 2000 nM | IC50 [40]: > 2000 nM | IC50 [41]: > 2000 nM | IC50 [43]: > 2000 nM | IC50 [44]: > 2000 nM | IC50 [45]: > 2000 nM

CC1(C)CNc2cc(NC(=O)c3cccnc3NCc3ccncc3)ccc21 [MOTESANIB]
IC50 [1]: > 2000 nM | IC50 [2]: > 2000 nM | IC50 [3]: > 2000 nM | IC50 [4]: > 2000 nM | IC50 [5]: > 2000 nM | IC50 [6]: > 2000 nM | IC50 [7]: > 2000 nM | IC50 [8]: > 2000 nM | IC50 [9]: > 2000 nM | IC50 [10]: > 2000 nM | IC50 [11]: > 2000 nM | IC50 [12]: > 2000 nM | IC50 [13]: > 2000 nM | IC50 [14]: > 2000 nM | IC50 [15]: > 2000 nM | IC50 [16]: > 2000 nM | IC50 [17]: > 2000 nM | IC50 [18]: > 2000 nM | IC50 [19]: > 2000 nM | IC50 [20]: > 2000 nM | IC50 [21]: > 2000 nM | IC50 [22]: > 2000 nM | IC50 [23]: > 2000 nM | IC50 [24]: > 2000 nM | IC50 [25]: > 2000 nM | IC50 [26]: > 2000 nM | IC50 [27]: > 2000 nM | IC50 [28]: > 2000 nM | IC50 [29]: > 2000 nM | IC50 [30]: 549 nM | IC50 [31]: > 2000 nM | IC50 [32]: > 2000 nM | IC50 [33]: > 2000 nM | IC50 [34]: > 2000 nM | IC50 [35]: > 2000 nM | IC50 [36]: > 2000 nM | IC50 [37]: > 2000 nM | IC50 [38]: > 2000 nM | IC50 [39]: > 2000 nM | IC50 [40]: > 2000 nM | IC50 [41]: > 2000 nM | IC50 [42]: > 2000 nM | IC50 [43]: > 2000 nM | IC50 [44]: > 2000 nM | IC50 [45]: > 2000 nM

CCN(CC)CCCCNc1ncc2cc(-c3cc(OC)cc(OC)c3)c(NC(=O)NC(C)(C)C)nc2n1 [PD-173074]
IC50 [1]: > 2000 nM | IC50 [2]: > 2000 nM | IC50 [3]: > 2000 nM | IC50 [4]: > 2000 nM | IC50 [5]: > 2000 nM | IC50 [6]: > 2000 nM | IC50 [7]: > 2000 nM | IC50 [8]: > 2000 nM | IC50 [9]: > 2000 nM | IC50 [10]: > 2000 nM | IC50 [11]: > 2000 nM | IC50 [12]: > 2000 nM | IC50 [13]: > 2000 nM | IC50 [14]: > 2000 nM | IC50 [15]: > 2000 nM | IC50 [16]: > 2000 nM | IC50 [17]: > 2000 nM | IC50 [18]: > 2000 nM | IC50 [19]: 1470 nM | IC50 [20]: > 2000 nM | IC50 [21]: > 2000 nM | IC50 [22]: > 2000 nM | IC50 [23]: > 2000 nM | IC50 [24]: > 2000 nM | IC50 [25]: > 2000 nM | IC50 [26]: > 2000 nM | IC50 [27]: > 2000 nM | IC50 [28]: > 2000 nM | IC50 [29]: > 2000 nM | IC50 [30]: > 2000 nM | IC50 [31]: > 2000 nM | IC50 [32]: > 2000 nM | IC50 [33]: > 2000 nM | IC50 [34]: > 2000 nM | IC50 [35]: > 2000 nM | IC50 [36]: > 2000 nM | IC50 [37]: > 2000 nM | IC50 [38]: > 2000 nM | IC50 [39]: > 2000 nM | IC50 [40]: > 2000 nM | IC50 [41]: > 2000 nM | IC50 [42]: > 2000 nM | IC50 [43]: 790 nM | IC50 [44]: > 2000 nM | IC50 [45]: > 2000 nM

Cn1cnc2c(F)c(Nc3ccc(Br)cc3Cl)c(C(=O)NOCCO)cc21 [SELUMETINIB]
IC50 [1]: > 4000 nM | IC50 [2]: > 4000 nM | IC50 [3]: 1050 nM | IC50 [4]: > 4000 nM | IC50 [5]: > 4000 nM | IC50 [6]: > 4000 nM | IC50 [7]: 2570 nM | IC50 [8]: > 4000 nM | IC50 [9]: > 4000 nM | IC50 [10]: > 4000 nM | IC50 [11]: > 4000 nM | IC50 [12]: > 4000 nM | IC50 [13]: > 4000 nM | IC50 [14]: 3910 nM | IC50 [15]: > 4000 nM | IC50 [17]: 89 nM | IC50 [18]: > 4000 nM | IC50 [19]: > 4000 nM | IC50 [20]: > 4000 nM | IC50 [21]: > 4000 nM | IC50 [22]: > 4000 nM | IC50 [23]: > 4000 nM | IC50 [24]: > 4000 nM | IC50 [25]: > 4000 nM | IC50 [26]: > 4000 nM | IC50 [27]: > 4000 nM | IC50 [28]: > 4000 nM | IC50 [29]: > 4000 nM | IC50 [30]: > 4000 nM | IC50 [31]: > 4000 nM | IC50 [32]: > 4000 nM | IC50 [33]: > 4000 nM | IC50 [34]: > 4000 nM | IC50 [35]: 322 nM | IC50 [36]: > 4000 nM | IC50 [37]: > 4000 nM | IC50 [38]: > 4000 nM | IC50 [39]: > 4000 nM | IC50 [40]: > 4000 nM | IC50 [41]: > 4000 nM | IC50 [42]: > 4000 nM | IC50 [43]: > 4000 nM | IC50 [44]: 351 nM | IC50 [45]: 3610 nM
